{"source": "patent US20260165949A1", "about": "“COMPOSITION CONTAINING N-NONYLDEOXYNOJIRIMYCIN FOR SUPPRESSION, ALLEVIATION, PALLIATION, OR TREATMENT OF SKIN ITCHING” (CHA UNIVERSITY INDUSTRY-ACADEMIC COOPERATION FOUNDATION, priority 2022, published 2026)", "key": {"[1]": {"system": "RBL-2H3 cells", "experiment": "β-hexosaminidase release induced by PMA/A23187 stimulation (degranulation) in RBL-2H3 cells", "type": "cell-based", "procedure": "(§1) Mast cells (RBL-2H3 cells) were purchased from ATCC (American Type Culture Collection, USA). RBL-2H3 cells were cultured in a DMEM medium (Dulbecco's Modified Eagle's medium (high glucose), Hyclone, USA) containing 10% fetal bovine serum (FBS) and 1% penicillin/streptomycin at 37° C. in a 5% CO2 incubator.\nIn order to evaluate the inhibitory effects against degranulation of RBL-2H3 cells, β-hexosaminidase release was measured for various compounds. Specifically, the cultured RBL-2H3 cells were seeded at 2×10^5 cells/well in each well of a 24-well plate for cell culture and cultured in a DMEM medium containing 10% FBS and 1% penicillin/streptomycin. After 24 hours, the existing medium was removed. The cells were washed twice with an extracellular buffer (5 mM KCl, 119 mM NaCl, 25 mM PIPES, 0.4 mM MgCl2, 1 mM CaCl2), 40 mM NaOH, 5.6 mM glucose, 0.1% BSA, pH 7.2) and the medium was replaced with the extracellular buffer. […] After the reaction was terminated by adding a stop solution (0.1 M carbonate buffer, pH 10), the absorbance was measured at 405 nm using a microplate reader.\nThe β-hexosaminidase release was measured in the same manner as in Example 2, except that N-nonyldeoxynojirimycin was treated at various concentrations (1 to 200 μM)."}, "[2]": {"system": "PGE2 release in RBL-2H3 cells", "experiment": "PGE2 release induced by PMA/A23187 stimulation in RBL-2H3 cells (ELISA)", "type": "cell-based", "settings": "1 to 40 μM; 50 nM PMA and 1 μM A23187 for 30 minutes; FIG. 3", "procedure": "as §1\nIn order to evaluate the inhibitory effects against […] (PGE2) release of RBL-2H3 cells according to the treatment of N-nonyldeoxynojirimycin, an enzyme-linked immunosorbent assay (ELISA) was performed using a PGE2 ELISA kit (R&D Systems, USA). Specifically, the cultured RBL-2H3 cells were seeded at 1×10^6 cells/well in each well of a 6-well plate for cell culture and cultured in the same manner as in Example 2. After 24 hours, the existing medium was removed. The cells were washed with PBS and a DMEM medium without FBS was added thereto. After N-nonyldeoxynojirimycin was treated at various concentrations (1 to 40 μM), the cells were cultured for 1 hour at 37° C. in a 5% CO2 incubator. The cells were treated with 50 nM of PMA and 1 μM of A23187 and incubated for an additional 30 minutes. The cell culture mixture was collected in a 1.5 ml tube and then centrifuged at 2,000 rcf. The supernatant thereof was subject to the ELISA analysis using a PGE2 ELISA kit (R&D Systems, USA). After completion of the reaction, the absorbance was measured at 450 nm using a microplate reader."}, "[3]": {"system": "IL-6 release in HaCaT cells", "experiment": "IL-6 release induced by TNF-α/IFN-γ stimulation in HaCaT cells (ELISA)", "type": "cell-based", "settings": "various concentrations; TNF-α and IFN-γ 10 ng/ml each, 24 hours; FIG. 4", "procedure": "(§2) Epidermal cells (HaCaT cells) were purchased from Thermo Fisher Scientific (USA). HaCaT cells were cultured in a DMEM medium (Dulbecco's Modified Eagle's medium (high glucose), Hyclone, USA) containing 10% fetal bovine serum (FBS) and 1% penicillin/streptomycin at 37° C. in a 5% CO2 incubator.\n(§3) In order to evaluate the inhibitory effects against IL-6, CCL17, and CCL22 release induced by TNF-α and IFN-γ stimulation in HaCaT cells, an epidermal cell model for the itching associated with the skin barrier, we used a IL-6 ELISA kit (Abcam, UK), a CCL17 ELISA kit (R&D Systems, USA), and a CCL22 ELISA kit (R&D Systems, USA). HaCaT cells were seeded at 1×10^6 cells/well in each well of a coated 6-well plate for cell culture and cultured in a DMEM medium containing 10% FBS and 1% antibiotics (penicillin/streptomycin). After 24 hours, the existing medium was removed. The cells were washed with PBS and a DMEM medium without FBS was added thereto. After N-nonyldeoxynojirimycin was treated at various concentrations, the cells were cultured for 1 hour at 37° C. in a 5% CO2 incubator. The cells were treated with TNF-α and IFN-γ at 10 ng/ml each and then incubated for an additional 24 hours. The cell culture mixture was collected in a 1.5 ml tube and then centrifuged at 2,000 rcf. […] After completion of the reaction, the absorbance was measured at 450 nm using a microplate reader. […]"}, "[4]": {"system": "CCL17 release in HaCaT cells", "experiment": "CCL17 release induced by TNF-α/IFN-γ stimulation in HaCaT cells (ELISA)", "type": "cell-based", "settings": "various concentrations; TNF-α and IFN-γ 10 ng/ml each, 24 hours; FIG. 5", "procedure": "as §2, §3"}, "[5]": {"system": "CCL22 release in HaCaT cells", "experiment": "CCL22 release induced by TNF-α/IFN-γ stimulation in HaCaT cells (ELISA)", "type": "cell-based", "settings": "various concentrations; TNF-α and IFN-γ 10 ng/ml each, 24 hours; FIG. 6", "procedure": "as §2, §3"}, "[6]": {"system": "glucosidase", "settings": "cited from earlier work"}, "[7]": {"system": "hepatic glycogenolysis", "settings": "in vivo; cited from earlier work"}}}
{"compound": "CCCCCCCCCN1C[C@H](O)[C@@H](O)[C@H](O)[C@H]1CO", "note": "[N-nonyldeoxynojirimycin]", "values": [{"measurement": "inhibitory effect against β-hexosaminidase release according to treatment concentration", "setting": "[1]; 1 to 200 μM, PMA/A23187 stimulation, FIG. 2", "result": "inhibits the β-hexosaminidase release in a concentration-dependent manner"}, {"measurement": "inhibitory effect against β-hexosaminidase release", "setting": "[1]; test material 20 μM, 1 hour, then 50 nM PMA and 1 μM A23187 for 30 minutes, FIG. 1", "result": "remarkably inhibited the β-hexosaminidase release compared to other alkaloid analogues"}, {"measurement": "inhibitory effect against PGE2 release", "setting": "[2]", "result": "inhibited the PGE2 release in a concentration-dependent manner"}, {"measurement": "inhibitory effect against IL-6 release", "setting": "[3]", "result": "inhibited the IL-6, CCL17, and CCL22 releases"}, {"measurement": "inhibitory effect against CCL17 release", "setting": "[4]", "result": "inhibited the IL-6, CCL17, and CCL22 releases"}, {"measurement": "inhibitory effect against CCL22 release", "setting": "[5]", "result": "inhibited the IL-6, CCL17, and CCL22 releases"}, {"measurement": "glucosidase inhibitory activity", "setting": "[6]", "result": "has a glucosidase inhibitory activity"}, {"measurement": "inhibition of hepatic glycogenolysis", "setting": "[7]", "result": "known to inhibit hepatic glycogenolysis in vivo"}]}
